Usually MIC stands for the smallest concentration in the dilution series that meets the test's criterion for growth inhibition. A higher MIC goes with weaker potency.

≈ marks a conversion by molar mass, not a printed value.

Ten molecules from ChEMBL document CHEMBL1153107, “A highly atom economic, chemo-, regio- and stereoselective synthesis and evaluation of spiro-pyrrolothiazoles as antitubercular agents” (2010) can be followed below.

The assay has as its system Mycobacterium tuberculosis. Briefly: Antitubercular activity against multidrug-resistant Mycobacterium tuberculosis. Format: functional.

In turn, `CC[C@@H](CO)NCCN[C@@H](CC)CO` [ETHAMBUTOL] returned an MIC of 61.2 µM (≈ 12.5 µg/mL).

`CN1C/C(=C\c2ccc(Cl)cc2Cl)C(=O)[C@]2(C1)[C@H](c1ccc(Cl)cc1Cl)[C@@H]1CSCN1[C@@]21C(=O)Nc2ccc([N+](=O)[O-])cc21` returned an MIC of 0.6 µM (≈ 0.414 µg/mL). On to `CN1C/C(=C\c2ccc(Br)cc2)C(=O)[C@]2(C1)[C@H](c1ccc(Br)cc1)[C@@H]1CSCN1[C@@]21C(=O)Nc2ccc([N+](=O)[O-])cc21`, for which the MIC was found to be 2.3 µM (≈ 1.63 µg/mL).

Turning to `NC(=O)c1cnccn1` [PYRAZINAMIDE], it took 406 µM (≈ 50 µg/mL) to inhibit growth (MIC). Turning to `NNC(=O)c1ccncc1` [ISONIAZID], the MIC is 11.4 µM (≈ 1.56 µg/mL). Compared with the last molecule, the MIC is about 36-fold lower. The result for `CN1C/C(=C\c2ccccc2Cl)C(=O)[C@]2(C1)[C@H](c1ccccc1Cl)[C@@H]1CSCN1[C@@]21C(=O)Nc2ccc([N+](=O)[O-])cc21` reads 2.6 µM (≈ 1.62 µg/mL); that for `CN1C/C(=C\c2ccc(Cl)cc2Cl)C(=O)[C@]2(C1)[C@H](c1ccc(Cl)cc1Cl)[C@@H]1CSCN1[C@@]21C(=O)Nc2ccc(Cl)cc21`, 2.4 µM (≈ 1.63 µg/mL); that for `CO[C@H]1/C=C/O[C@@]2(C)Oc3c(C)c(O)c4c(O)c(c(/C=N/N5CCN(C)CC5)c(O)c4c3C2=O)NC(=O)/C(C)=C\C=C\[C@H](C)[C@H](O)[C@@H](C)[C@@H](O)[C@@H](C)[C@H](OC(C)=O)[C@@H]1C` [RIFAMPIN], 3.8 µM (≈ 3.13 µg/mL). Under `CN1C/C(=C\c2ccc(F)cc2)C(=O)[C@]2(C1)[C@H](c1ccc(F)cc1)[C@@H]1CSCN1[C@@]21C(=O)Nc2ccc([N+](=O)[O-])cc21` stands 1.4 µM (≈ 0.824 µg/mL); under `CN1C/C(=C\c2ccc(F)cc2)C(=O)[C@]2(C1)[C@H](c1ccc(F)cc1)[C@@H]1CSCN1[C@@]21C(=O)Nc2ccc(Cl)cc21`, 2.8 µM (≈ 1.62 µg/mL).
